Reference: patent US20080234498A1, “Pyrovalerone Analogues and Therapeutic Uses Thereof” (PRESIDENT AND FELLOW OF HARVARD COLLEGE, priority 2003, published 2008)
Counter-ions that a name gives are not always drawn. Like-named read-outs stand apart in the source and are kept apart here. Marks after values point to notes of the source that are not given here.

Columns and labels:
[1] = molecular target: dopamine transporter (DAT) (Homo sapiens, UniProt Q01959); assay: Radioreceptor assay, inhibition of (3H)WIN 35,428 binding to the dopamine transporter
Description: Dysfunction of dopamine neurons has been implicated in several neuropsychiatric diseases. Imaging of the dopamine neurons offers important clinical information relevant to diagnosis and therapeutic treatments. Dopamine neurons produce dopamine, release the neurotransmitter and remove the released dopamine with a dopamine transporter protein. Compounds that bind to the dopamine transporter are effective measures of dopamine neurons and can be transformed into imaging agents for PET and for SPECT imaging (see, e.g., Example 70, infra, for use of PET imaging). In identifying a suitable compound for the dopamine transporter, an essential first step is to measure the affinity and selectivity of a candidate at the dopamine transporter. The affinity can be measured by conducting radioreceptor assays. A radiolabeled marker for the transporter, e.g., (^3H)WIN 35,428, is incubated with the unlabeled candidate and a source of the transporter, usually brain striatum. The effect of various concentrations of the candidate on inhibiting (^3H)WIN 35,428 binding is quantified. The concentration of the compound that inhibits 50% of (^3H)WIN 35,428 bound to the transporter (IC50 value) is used as a measure of its affinity for the transporter. A suitable range of concentrations of the candidate typically is about 1 nM up to about 100 nM, more preferably 1 to 10 nM.
(§1) ^3H-WIN 35,428 (^3H-CFT, 2β-carbomethoxy-3β-(4-fluorophenyl)-N-^3H-methyltropane, 79.4-87.0 Ci/mmol) and ^3H-citalopram (86.8 Ci/mmol) is purchased from DuPont-New England Nuclear (Boston, Mass.). HPLC analyses are carried out on a Waters 510 system with detection at 254 nm on a Chiralcel OC column (flow rate: 1 mL/min).

[2] = molecular target: T1, dopamine transporter (Macaca mulatta, UniProt Q7JHP9); assay: Dopamine transporter occupancy by PET imaging with [11C]CFT; assay type: in vivo, Rhesus monkeys; details: for Brain entry and occupancy of DAT sites (in words): living brain, PET imaging, cerebellum as the negative control; for [11C]CFT with Compound (binding potential) / % Occupancy / % Occupancy, cerebellum levels considered background: rhesus monkey; for [11C]CFT with Compound (binding potential): compound intravenously, PET one hour after administration; for % Occupancy / % Occupancy, cerebellum levels considered background: i.v., one hour; for % Occupancy: from reduced [11C]CFT binding potential vs baseline; for % Occupancy, cerebellum levels considered background: reduced to levels of cerebellum = full occupancy
T1 construct: occupy the dopamine transporter in living brain; from tissue; host or cells: living brain of rhesus monkeys (in vivo PET)
Protocol: As the compounds of the invention are high affinity ligands for the dopamine transporter, we determined whether they occupy the dopamine transporter in living brain within 1 hour of administration. To monitor occupancy of the dopamine transporter, PET imaging was conducted with the high affinity dopamine transporter probe [11C]CFT ([11C]WIN 35,428). Rhesus monkeys were anesthetized with ketamine and xylazine and an indwelling intravenous catheter was placed in a leg vein. DAT density (binding potential) was acquired with [11C]CFT to obtain baseline levels. Immediately following completion of the imaging session, monkeys were administered the test compound intravenously via the indwelling catheter and PET imaging was conducted one hour after administration. Imaging data from the pre- and post-drug session were compared and occupancy was calculated on the basis of reduced [11C]CFT binding potential one hour or longer after administration of the compound. The following table (Table 1) summarizes pilot data from this study.

[3] = molecular target: serotonin transporter (SERT) (Homo sapiens, UniProt P31645); assay: Radioreceptor assay, inhibition of (3H)citalopram binding to the serotonin transporter
Protocol: The serotonin transporter is also detectable in the striatum, the brain region with the highest density of dopamine neurons and in brain regions surrounding the striatum. […] Therefore, a measure of probe affinity of the serotonin transport is conducted by assays paralleling the dopamine transporter assays.
as §1

dopamine transporter (DAT), sequence (Q01959 whole entry, species assumed): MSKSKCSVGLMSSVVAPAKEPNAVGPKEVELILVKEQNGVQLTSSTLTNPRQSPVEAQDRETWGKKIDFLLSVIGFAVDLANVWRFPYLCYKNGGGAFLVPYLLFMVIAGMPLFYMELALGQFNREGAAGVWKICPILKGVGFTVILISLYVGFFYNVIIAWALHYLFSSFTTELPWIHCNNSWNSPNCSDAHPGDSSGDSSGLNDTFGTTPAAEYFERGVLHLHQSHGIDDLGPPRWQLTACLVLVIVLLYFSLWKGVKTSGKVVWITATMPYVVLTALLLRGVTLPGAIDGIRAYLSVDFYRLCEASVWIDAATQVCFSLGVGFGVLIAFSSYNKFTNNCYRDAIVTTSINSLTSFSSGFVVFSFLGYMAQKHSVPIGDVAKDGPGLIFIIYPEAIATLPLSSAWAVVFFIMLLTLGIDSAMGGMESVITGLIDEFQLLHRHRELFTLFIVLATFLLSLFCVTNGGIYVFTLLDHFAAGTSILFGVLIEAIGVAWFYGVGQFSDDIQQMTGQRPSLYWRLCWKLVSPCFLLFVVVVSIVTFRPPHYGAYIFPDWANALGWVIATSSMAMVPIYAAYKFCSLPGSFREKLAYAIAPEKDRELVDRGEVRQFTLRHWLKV
T1 sequence (Q7JHP9 1-620): as the sequence (Q01959 whole entry, species assumed) above, with V24M, I137V, P194S, S198G, D200N, S201G, S202P counted along it
serotonin transporter (SERT), sequence (P31645 whole entry, species assumed): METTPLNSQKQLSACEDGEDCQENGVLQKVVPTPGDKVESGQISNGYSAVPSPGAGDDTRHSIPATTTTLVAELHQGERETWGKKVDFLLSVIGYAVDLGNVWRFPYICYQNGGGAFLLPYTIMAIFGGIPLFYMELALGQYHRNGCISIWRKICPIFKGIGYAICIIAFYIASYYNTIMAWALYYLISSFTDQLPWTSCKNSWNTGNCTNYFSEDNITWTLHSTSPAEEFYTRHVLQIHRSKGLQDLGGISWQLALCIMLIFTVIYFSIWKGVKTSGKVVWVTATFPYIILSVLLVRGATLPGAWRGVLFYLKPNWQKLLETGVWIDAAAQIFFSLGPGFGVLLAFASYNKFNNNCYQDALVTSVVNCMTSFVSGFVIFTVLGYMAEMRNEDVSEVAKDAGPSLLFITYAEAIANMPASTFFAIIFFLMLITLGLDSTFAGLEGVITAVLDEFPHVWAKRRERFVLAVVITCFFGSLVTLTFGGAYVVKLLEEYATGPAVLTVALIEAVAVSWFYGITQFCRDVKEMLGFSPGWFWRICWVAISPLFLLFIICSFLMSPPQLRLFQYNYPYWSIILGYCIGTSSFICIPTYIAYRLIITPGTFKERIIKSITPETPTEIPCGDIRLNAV

Row | SMILES | melting point | also measured
1 | CCCC(C(=O)c1ccc(-c2cccs2)cc1)N1CCCC1 (centres unmarked) (as salt: salt) | 220 °C (dec.) | –
2 | CCCC(C(=O)c1ccc(NC(C)=O)cc1)N1CCCC1 (centres unmarked) (as salt: salt) | 195 °C (dec.) | –
3 | CCCC(C(=O)c1ccc([N+](=O)[O-])cc1)N1CCCC1 (centres unmarked) (as salt: salt) | 189 °C (dec.) | –
4 | CCCC(C(=O)c1cccc(C)c1)N1CCCC1 (centres unmarked) (as salt: salt) | 166 °C (dec.) | –
5 | CCCC(C(=O)c1ccc(C(F)(F)F)cc1)N1CCCC1 (centres unmarked) (as salt: salt) | 228 °C (dec.) | –
6 | CCCC(C(=O)c1ccc2ccccc2c1)N1CCCC1 (centres unmarked) (as salt: salt) | 221 to 223 °C (dec.) | –
7 | CCCC(C(=O)c1ccc(I)cc1)N1CCCC1 (centres unmarked) (as salt: salt) | 218 °C (dec.) | –
8 | Cc1ccc(C(=O)C(CC(C)C)N2CCCC2)cc1 (centres unmarked) (as salt: salt) | 218 °C (dec.) | –
9 | CCCC(C(=O)c1ccc(OC)c(OC)c1)N1CCCC1 (centres unmarked) (as salt: salt) | 177 °C (dec.) | –
10 | CC#Cc1ccc(C(=O)C(CCC)N2CCCC2)cc1 (centres unmarked) (as salt: salt) | 231 °C (dec.) | –
11 | CCCC(C(=O)c1ccc(F)cc1)N1CCCC1 (centres unmarked) (as salt: salt) | 218 °C (dec.) | –
12 | CCC(C(=O)c1ccc(Cl)c(Cl)c1)N1CCCC1 (centres unmarked) (as salt: salt) | 211 °C (dec.) | –
13 | CCCC(C(=O)c1ccc(Cl)c(Cl)c1)N1CCCCC1 (centres unmarked) (as salt: salt) | 202 °C (dec.) | –
14 | CCCC(C(=O)c1cccc(I)c1)N1CCCC1 (centres unmarked) (as salt: salt) | 203 °C (dec.) | –
15 | CCC(CC(=O)c1ccc(Cl)c(Cl)c1)N1CCCC1 (centres unmarked) (as salt: salt) | 104 to 107 °C (dec.) | –
16 | CCC(CC(=O)c1ccc(C)cc1)N1CCCC1 (centres unmarked) (as salt: salt) | 97 °C (dec.) | –

Row | SMILES | melting point | also measured
17 | CCCC(C(=O)c1ccc(O)c(O)c1)N1CCCC1 (centres unmarked) (as salt: salt) | 181 to 182 °C | –
18 | CCCC(C(=O)c1ccc(C#N)cc1)N1CCCC1 (centres unmarked) (as salt: salt) | 197 to 199 °C (dec.) | –
19 | C#CCC(C(=O)c1ccc(C)cc1)N1CCCC1 (centres unmarked) (as salt: salt) | 178 °C (dec.) | –
20 | CCCC(C(=O)c1ccc(CO)cc1)N1CCCC1 (centres unmarked) (as salt: salt) | 186 to 187 °C (dec.) | –
21 | CCCC(N1CCCC1)C(O)(Cc1ccccc1)c1ccc(C)cc1 (centres unmarked) (as salt: salt) | 211 °C (dec.) | –
22 | C=CCC(C(=O)c1ccc(C)cc1)N1CCCC1 (centres unmarked) (as salt: salt) | 196 °C (dec.) | –
23 | CCCC(C(=O)c1ccc(C(=O)OC)cc1)N1CCCC1 (centres unmarked) (as salt: salt) | 202 °C (dec.) | –
24 | CCCC(C(=O)c1ccc(Cl)c(Cl)c1)N1CCCC1 (centres unmarked) (as salt: salt) [Compound O-2390, 2-Pyrrolidin-1-yl-1-(3,4-Dichloro-phenyl)-pentan-1-one] | 195 °C (dec.) | –
25 | CCCC(C(=O)c1ccc(Br)cc1)N1CCCC1 (centres unmarked) (as salt: salt) [Compound O-2419, 2-Pyrrolidin-1-yl-1-(4′-bromo-phenyl)-pentan-1-one] | 200 °C (dec.) | –
26 | CCCC(C(=O)c1ccc(C)cc1)N1CCCC1 (racemic) (as salt: salt) [Compound O-2371, 2-Pyrrolidin-1-yl-1-p-tolyl-pentan-1-one] | 180 °C (dec.) | –
27 | CCCC(C(=O)c1ccc(C)cc1)N1CCCC1 (racemic) [Compound O-2371, 2-Pyrrolidin-1-yl-1-p-tolyl-pentan-1-one] | – | IC50 [1]: 8 nM; Brain entry and occupancy of DAT sites (in words) [2]: most efficient in entering the brain and occupying the majority of DAT sites; [11C]CFT with Compound (binding potential) [2]: 0.4551; % Occupancy [2]: 74%; % Occupancy, cerebellum levels considered background [2]: 100* %
28 | CCCC(C(=O)c1ccccc1)N1CCCC1 (centres unmarked) [Compound O-2387, 2-Pyrrolidin-1-yl-phenyl-pentan-1-one] | – | IC50 ([1]; affinity column of the PET occupancy table, read-out: DAT Affinity): 13 nM; [11C]CFT with Compound (binding potential) [2]: 0.7885; % Occupancy [2]: 64%
29 | CCCC(C(=O)c1ccc(Cl)c(Cl)c1)N1CCCC1 (centres unmarked) [Compound O-2390, 2-Pyrrolidin-1-yl-1-(3,4-Dichloro-phenyl)-pentan-1-one] | – | IC50 [1]: 8 nM; [11C]CFT with Compound (binding potential) [2]: 0.5898; % Occupancy [2]: 56%
30 | CCCC(C(=O)c1ccc(Br)cc1)N1CCCC1 (centres unmarked) [Compound O-2419, 2-Pyrrolidin-1-yl-1-(4′-bromo-phenyl)-pentan-1-one] | – | IC50 [1]: 8 nM; [11C]CFT with Compound (binding potential) [2]: 1.6025; % Occupancy [2]: 33%
31 | CCC[C@@H](C(=O)c1ccc(C)cc1)N1CCCC1 [Compound O-2442, (2S)-2-Pyrrolidin-1-yl-1-p-tolyl-pentan-1-one] | – | IC50 [3]: > 4000 nM; IC50 [1]: 3 nM; DAT inhibition potency, comparison of enantiomers ([1]; 2S versus 2R enantiomer): more potent DAT inhibitor than the 2R-enantiomer; Brain entry and occupancy of DAT sites (in words) [2]: most efficient in entering the brain and occupying the majority of DAT sites; [11C]CFT with Compound (binding potential) [2]: 0.6112; % Occupancy [2]: 70%; % Occupancy, cerebellum levels considered background [2]: 100* %
